Reference: patent US20100041892A1, “Therapeutic agent for diabetes” (priority 2005, published 2010)

SMILES: CCCCCS(=O)(=O)NC(=O)/C=C/c1ccc(OCCOC)cc1NC(=O)c1ccc(F)cc1F [Example 191, 2,4-difluoro-N-(5-(2-methoxyethoxy)-2-{(1E)-3-oxo-3-[(pentylsulfonyl)-amino]prop-1-en-1-yl}phenyl)benzamide]
- melting point: 140 to 140.8 °C

SMILES: CCCCCS(=O)(=O)NC(=O)/C(=C/c1ccc(OCCOC)cc1Oc1ncc(Cl)cc1Cl)CC [Example 188, (2E)-2-[2-[(3,5-dichloropyridin-2-yl)oxy]-4-(2-methoxyethoxy)benzylidene]-N-(pentylsulfonyl)butanamide]
- melting point: 118 to 118.4 °C

SMILES: CCCCCOC(=O)NS(=O)(=O)CCc1cc(OCCCC)nn1Cc1ccc(Cl)cc1Cl [Example 135, pentyl ({2-[3-butoxy-1-(2,4-dichlorobenzyl)-1H-pyrazol-5-yl]ethyl}sulfonyl)carbamate]
- melting point: 91 to 93 °C

SMILES: C=CCOC(=O)NS(=O)(=O)CCc1cc(OCCCC)nn1Cc1ccc(Cl)cc1Cl [Example 137, allyl ({2-[3-butoxy-1-(2,4-dichlorobenzyl)-1H-pyrazol-5-yl]ethyl}sulfonyl)carbamate]
- melting point: 94 to 95 °C

SMILES: COCOc1cc(/C=C/S(=O)(=O)NC(=O)OC(C)(C)C)n(Cc2ccc(Cl)cc2Cl)n1 [Example 200, tert-butyl-({(E)-2-[1-(2,4-dichlorobenzyl)-3-(methoxymethoxy)-1H-pyrazol-5-yl]vinyl}sulfonyl)carbamate]
- melting point: 139 to 140 °C

SMILES: CCCCCS(=O)(=O)NC(=O)/C=C/c1cc(OCCCC)nn1Cc1ccc(Cl)cc1Cl [Example 98, (2E)-3-[3-butoxy-1-(2,4-dichlorobenzyl)-1H-pyrazol-5-yl]-N-(pentylsulfonyl)acrylamide]
- melting point: 95 to 98 °C

SMILES: Cc1ccccc1S(=O)(=O)NC(=O)CCc1cc(OC(C)C)nn1Cc1ccc(Cl)cc1Cl [Example 88, 3-[1-(2,4-dichlorobenzyl)-3-isopropoxy-1H-pyrazol-5-yl]-N-[(2-methylphenyl)sulfonyl]propanamide]
- melting point: 165 to 166 °C

SMILES: CCCCOc1cc(CCS(=O)(=O)NC(=O)OCCC)n(Cc2ccc(Cl)cc2Cl)n1 [Example 132, propyl ({2-[3-butoxy-1-(2,4-dichlorobenzyl)-1H-pyrazol-5-yl]ethyl}sulfonyl)c arbamate]
- melting point: 92 to 94 °C

SMILES: COCCOc1ccc(CCCNS(=O)(=O)c2ccc(Cl)cc2)c(Oc2ncc(C(F)(F)F)cc2Cl)c1 [Example 22, 4-chloro-N-{3-[2-{[3-chloro-5-(trifluoromethyl)pyridin-2-yl]oxy}-4-(2-methoxyethoxy)phenyl]propyl}benzenesulfonamide]
- melting point: 111 to 113 °C

SMILES: CCCCOc1cc(/C=C/C(=O)NS(=O)(=O)CCC(C)C)n(Cc2ccc(Cl)cc2Cl)n1 [Example 99, (2E)-3-[3-butoxy-1-(2,4-dichlorobenzyl)-1H-pyrazol-5-yl]-N-[(3-methylbutyl)sulfonyl]acrylamide]
- melting point: 119 to 120 °C

SMILES: COCCCS(=O)(=O)NC(=O)CC(C)c1ccc(OCCOC)cc1Oc1ncc(C(F)(F)F)cc1Cl (stereo not drawn) [Example 78, 3-[2-{[3-chloro-5-(trifluoromethyl)pyridin-2-yl]oxy}-4-(2-methoxyethoxy)phenyl]-N-[(3-methoxypropyl)sulfonyl]butanamide]
- melting point: 107 to 109 °C

SMILES: CCCCCS(=O)(=O)NC(=O)/C=C/c1ccc(OCCCOCCOC)cc1Oc1ncc(C(F)(F)F)cc1Cl [Example 254, (2E)-3-{2-{[3-chloro-5-(trifluoromethyl)pyridin-2-yl]oxy}-4-[3-(2-methoxyethoxy)propoxy]phenyl}-N-(pentylsulfonyl)acrylamide]
- melting point: 103 to 105 °C

SMILES: COCCOc1ccc(/C=C/C(=O)NS(=O)(=O)c2ccccc2Cl)c(Oc2ncc(C(F)(F)F)cc2Cl)c1 [Example 235, (2E)-N-[(2-chlorophenyl)sulfonyl]-3-[2-{[3-chloro-5-(trifluoromethyl)pyridin-2-yl]oxy}-4-(2-methoxyethoxy)phenyl]acrylamide]
- melting point: 168 to 169 °C

SMILES: CCCCOc1cc(CCS(=O)(=O)NC(=O)OCc2ccccc2)n(Cc2ccc(Cl)cc2Cl)n1 [Example 136, benzyl ({2-[3-butoxy-1-(2,4-dichlorobenzyl)-1H-pyrazol-5-yl]ethyl}sulfonyl)carbamate]
- melting point: 99 to 101 °C

SMILES: CCCCCS(=O)(=O)NC(=O)/C=C/c1cc(OC2CCOCC2)nn1Cc1ccc(Cl)cc1Cl [Example 116, (2E)-3-[1-(2,4-dichlorobenzyl)-3-(tetrahydro-2H-pyran-4-yloxy)-1H-pyrazol-5-yl]-N-(pentylsulfonyl)acrylamide]
- melting point: 154 to 157 °C

SMILES: CCCCCS(=O)(=O)NC(=O)CCc1ccc(OCCOC)cc1OCc1ccc(Cl)cc1Cl [Example 169, 3-[2-[(2,4-dichlorobenzyl)oxy]-4-(2-methoxyethoxy)phenyl]-N-(pentylsulfonyl)propanamide]
- melting point: 106.7 to 108.2 °C

SMILES: CCOC(=O)COc1ccc(CCCOC(=O)NCC2CC2)c(Oc2ncc(C(F)(F)F)cc2Cl)c1 [Example 53, ethyl {3-{[3-chloro-5-(trifluoromethyl)-pyridin-2-yl]oxy}-4-[3-({[(cyclopropylmethyl)amino]carbonyl}-oxy)propyl]phenoxy}acetate]
- melting point: 112.8 to 113 °C

SMILES: CCCCCS(=O)(=O)NC(=O)/C=C/c1cc(OCCCC)nn1Cc1ccc(C(F)(F)F)cc1 [Example 103, (2E)-3-{3-butoxy-1-[4-(trifluoromethyl)benzyl]-1H-pyrazol-5-yl}-N-(pentylsulfonyl)acrylamide]
- melting point: 159 to 160 °C

SMILES: CCCCN(C(=O)CCc1ccc(OCCOC)cc1Oc1ncc(C(F)(F)F)cc1Cl)S(N)(=O)=O [Example 212, N-(aminosulfonyl)-N-butyl-3-[2-{[3-chloro-5-(trifluoromethyl)pyridin-2-yl]oxy}-4-(2-methoxyethoxy)phenyl]propanamide]
- melting point: 102 to 103 °C

SMILES: COCCOc1ccc(/C=C/COC(=O)NS(=O)(=O)NCCc2ccccc2)c(Oc2ncc(C(F)(F)F)cc2Cl)c1 [Example 435, (2E)-3-[2-{[3-chloro-5-(trifluoromethyl)pyridin-2-yl]oxy}-4-(2-methoxyethoxy)phenyl]prop-2-en-1-yl {[(2-phenylethyl)amino]sulfonyl}carbamate]
- melting point: 113 to 114 °C

SMILES: CC(C)Oc1cc(CCC(=O)NS(=O)(=O)c2ccccc2)n(Cc2ccc(Cl)cc2Cl)n1 [Example 82, 3-[1-(2,4-dichlorobenzyl)-3-isopropoxy-1H-pyrazol-5-yl]-N-(phenylsulfonyl)propanamide]
- melting point: 184 to 185 °C

SMILES: CCCCCS(=O)(=O)NC(=O)CCCCc1cc(OCCCC)nn1Cc1ccc(Cl)cc1Cl [Example 147, 5-[3-butoxy-1-(2,4-dichlorobenzyl)-1H-pyrazol-5-yl]-N-(pentylsulfonyl)pentanamide]
- melting point: 91 to 93 °C

SMILES: CCCCCS(=O)(=O)NC(=O)/C=C/c1ccc(OCCCOCC2CC2)cc1Oc1ncc(C(F)(F)F)cc1Cl [Example 259, (2E)-3-{2-{[3-chloro-5-(trifluoromethyl)pyridin-2-yl]oxy}-4-[3-(cyclopropylmethoxy)propoxy]phenyl}-N-(pentylsulfonyl)acrylamide]
- melting point: 124 to 125 °C

SMILES: CCCCOc1cc(CCS(=O)(=O)NC(=O)OCC(C)(C)C)n(Cc2ccc(Cl)cc2Cl)n1 [Example 140, 2,2-dimethylpropyl ({2-[3-butoxy-1-(2,4-dichlorobenzyl)-1H-pyrazol-5-yl]ethyl}sulfonyl)carbamate]
- melting point: 116 to 118 °C

SMILES: CCCCCS(=O)(=O)NC(=O)/C=C/c1cc(OCCOC)nn1Cc1ccc(C(F)(F)F)cc1Cl [Example 149, (2E)-3-[1-[2-chloro-4 (trifluoromethyl)benzyl]-3-(2-methoxyethoxy)-1H-pyrazol-5-yl]-N-(pentylsulfonyl)acrylamide]
- melting point: 130.5 to 132.5 °C

SMILES: COCCOc1ccc(CCCOC(=O)N2CCOCC2)c(Oc2ncc(C(F)(F)F)cc2Cl)c1 [Example 48, 3-[2-{[3-chloro-5-(trifluoromethyl)pyridin-2-yl]oxy}-4-(2-methoxyethoxy)phenyl]propyl morpholine-4-carboxylate]
- melting point: 82.3 to 82.4 °C

SMILES: CCCCOc1cc(CCS(=O)(=O)NC(=O)OCc2ccccc2)n(Cc2ccc(Cl)cc2Cl)n1 [Example 138, benzyl ({2-[3-butoxy-1-(2,4-dichlorobenzyl)-1H-pyrazol-5-yl]ethyl}sulfonyl)carbamate]
- melting point: 92 to 95 °C

SMILES: COCCCS(=O)(=O)NC(=O)CCc1ccc(OC(C)C)cc1Oc1ncc(C(F)(F)F)cc1Cl [Example 202, 3-(2-{[3-chloro-5-(trifluoromethyl)pyridin-2-yl]oxy}-4-isopropoxyphenyl)-N-[(3-methoxypropyl)sulfonyl]propanamide]
- melting point: 114 to 115 °C

SMILES: COCCOc1ccc(/C=C/C(=O)NS(=O)(=O)c2ccccn2)c(Oc2ncc(C(F)(F)F)cc2Cl)c1 [Example 239, (2E)-3-[2-{[3-chloro-5-(trifluoromethyl)pyridin-2-yl]oxy}-4-(2-methoxyethoxy)phenyl]-N-(pyridin-2-ylsulfonyl)acrylamide]
- melting point: 164 to 165 °C

SMILES: COCCOc1ccc(CCCNS(=O)(=O)CCCc2ccccc2)c(Oc2ncc(C(F)(F)F)cc2Cl)c1 [Example 21, N-{3-[2-{[3-chloro-5-(trifluoromethyl)pyridin-2-yl]oxy}-4-(2-methoxyethoxy)phenyl]propyl}-3-phenylpropane-1-sulfonamide]
- melting point: 101.8 to 102 °C

SMILES: CCCS(=O)(=O)NC(=O)CCc1cc(OC(C)C)nn1Cc1ccc(Cl)cc1Cl [Example 85, 3-[1-(2,4-dichlorobenzyl)-3-isopropoxy-1H-pyrazol-5-yl]-N-(propylsulfonyl)propanamide]
- melting point: 124 to 126 °C

SMILES: CCCCOc1ccc(CCCOC(=O)NS(=O)(=O)NCCOC(C)C)c(Oc2ncc(C(F)(F)F)cc2Cl)c1 [Example 473, 3-(4-butoxy-2-{[3-chloro-5-(trifluoromethyl)pyridin-2-yl]oxy}phenyl)propyl {[(2-isopropoxyethyl)amino]sulfonyl}carbamate]
- melting point: 91.4 to 91.6 °C

SMILES: CCCCCC(=O)NS(=O)(=O)/C=C/c1cc(OCCCC)nn1Cc1ccc(Cl)cc1Cl [Example 131, N-({(E)-2-[3-butoxy-1-(2,4-dichlorobenzyl)-1H-pyrazol-5-yl]vinyl}sulfonyl)hexanamide]
- melting point: 117 to 119 °C
